Measured values: paper PMC8703412 (Pharmaceuticals, 2021)
≈ marks a conversion by molar mass, not a printed value. Like-named read-outs stand apart in the source and are kept apart here.

Experiments:
Test in all cases: microbe, parasite or virus in culture
Type in all cases: cell-based, Mycobacterium tuberculosis
Conditions in all cases: for MIC: Mycobacterium tuberculosis
Mtb. Praha 1 (MDR-TB) = tested on: Mtb. Praha 1 (MDR-TB)
Mtb. Praha 4 (MDR-TB) = tested on: Mtb. Praha 4 (MDR-TB)
Mtb. Praha 131 (XDR-TB) = tested on: Mtb. Praha 131 (XDR-TB)
Mtb. 234/2005 (MDR-TB) = tested on: Mtb. 234/2005 (MDR-TB)
Mtb. 9449/2007 (MDR-TB) = tested on: Mtb. 9449/2007 (MDR-TB)
Mtb. 7357/1998 (MDR-TB) = tested on: Mtb. 7357/1998 (MDR-TB)
Mtb. 8666/2010 (MDR-TB) = tested on: Mtb. 8666/2010 (MDR-TB)
[1] = 336 h, read-out: MIC Mtb. Praha 1 14 d
[2] = 504 h, read-out: MIC Mtb. Praha 1 21 d
[3] = 336 h, read-out: MIC Mtb. Praha 4 14 d
[4] = 504 h, read-out: MIC Mtb. Praha 4 21 d
[5] = 336 h, read-out: MIC Mtb. Praha 131 14 d
[6] = 504 h, read-out: MIC Mtb. Praha 131 21 d
[7] = 336 h, read-out: MIC Mtb. 234/2005 14 d
[8] = 504 h, read-out: MIC Mtb. 234/2005 21 d
[9] = 336 h, read-out: MIC Mtb. 9449/2007 14 d
[10] = 504 h, read-out: MIC Mtb. 9449/2007 21 d
[11] = 336 h, read-out: MIC Mtb. 7357/1998 14 d
[12] = 504 h, read-out: MIC Mtb. 7357/1998 21 d
[13] = 336 h, read-out: MIC Mtb. 8666/2010 14 d
[14] = 504 h, read-out: MIC Mtb. 8666/2010 21 d

Compound | MIC (Mtb. Praha 1 (MDR-TB); [1]) | MIC (Mtb. Praha 1 (MDR-TB); [2]) | MIC (Mtb. Praha 4 (MDR-TB); [3]) | MIC (Mtb. Praha 4 (MDR-TB); [4]) | MIC (Mtb. Praha 131 (XDR-TB); [5]) | MIC (Mtb. Praha 131 (XDR-TB); [6]) | MIC (Mtb. 234/2005 (MDR-TB); [7]) | MIC (Mtb. 234/2005 (MDR-TB); [8]) | MIC (Mtb. 9449/2007 (MDR-TB); [9]) | MIC (Mtb. 9449/2007 (MDR-TB); [10]) | MIC (Mtb. 7357/1998 (MDR-TB); [11]) | MIC (Mtb. 7357/1998 (MDR-TB); [12]) | MIC (Mtb. 8666/2010 (MDR-TB); [13]) | MIC (Mtb. 8666/2010 (MDR-TB); [14]) | also measured
5-Isopropyl-2-methylphenyl (E)-2-(2-isonicotinoylhydrazineylidene)propanoate [3k] | – | – | – | – | – | – | – | – | – | – | – | – | – | – | MIC Mtb. Praha 1 14 d (Mtb. Praha 1 (MDR-TB); 14 d incubation): 125 µM; MIC Mtb. Praha 1 21 d (Mtb. Praha 1 (MDR-TB); 21 d incubation): 125 µM; MIC Mtb. Praha 4 14 d (Mtb. Praha 4 (MDR-TB); 14 d incubation): 16 µM; MIC Mtb. Praha 4 21 d (Mtb. Praha 4 (MDR-TB); 21 d incubation): 32 µM; MIC Mtb. Praha 131 14 d (Mtb. Praha 131 (XDR-TB); 14 d incubation): 32 µM; MIC Mtb. Praha 131 21 d (Mtb. Praha 131 (XDR-TB); 21 d incubation): 64 µM; MIC Mtb. 234/2005 14 d (Mtb. 234/2005 (MDR-TB); 14 d incubation): 32 µM; MIC Mtb. 234/2005 21 d (Mtb. 234/2005 (MDR-TB); 21 d incubation): 32 µM; MIC Mtb. 9449/2007 14 d (Mtb. 9449/2007 (MDR-TB); 14 d incubation): 32 µM; MIC Mtb. 9449/2007 21 d (Mtb. 9449/2007 (MDR-TB); 21 d incubation): 32 µM; MIC Mtb. 7357/1998 14 d (Mtb. 7357/1998 (MDR-TB); 14 d incubation): 32 µM; MIC Mtb. 7357/1998 21 d (Mtb. 7357/1998 (MDR-TB); 21 d incubation): 32 µM; MIC Mtb. 8666/2010 14 d (Mtb. 8666/2010 (MDR-TB); 14 d incubation): 16 µM; MIC Mtb. 8666/2010 21 d (Mtb. 8666/2010 (MDR-TB); 21 d incubation): 32 µM
C/C(=N\NC(=O)c1ccncc1)C(=O)Oc1ccccc1 [3b, Phenyl (E)-2-(2-isonicotinoylhydrazineylidene)propanoate] | 16 µM (≈ 4.53 µg/mL) | 16 µM (≈ 4.53 µg/mL) | 16 µM (≈ 4.53 µg/mL) | 16 µM (≈ 4.53 µg/mL) | 16 µM (≈ 4.53 µg/mL) | 16 µM (≈ 4.53 µg/mL) | 32 µM (≈ 9.07 µg/mL) | 32 µM (≈ 9.07 µg/mL) | 32 µM (≈ 9.07 µg/mL) | 32 µM (≈ 9.07 µg/mL) | 16 µM (≈ 4.53 µg/mL) | 16 µM (≈ 4.53 µg/mL) | 16 µM (≈ 4.53 µg/mL) | 16 µM (≈ 4.53 µg/mL) | –
COc1ccc(OC(=O)/C(C)=N/NC(=O)c2ccncc2)cc1 [3d, 4-Methoxyphenyl (E)-2-(2-isonicotinoylhydrazineylidene)propanoate] | 8 µM (≈ 2.51 µg/mL) | 16 µM (≈ 5.01 µg/mL) | 16 µM (≈ 5.01 µg/mL) | 32 µM (≈ 10 µg/mL) | 8 µM (≈ 2.51 µg/mL) | 16 µM (≈ 5.01 µg/mL) | 16 µM (≈ 5.01 µg/mL) | 32 µM (≈ 10 µg/mL) | 16 µM (≈ 5.01 µg/mL) | 16 µM (≈ 5.01 µg/mL) | 16 µM (≈ 5.01 µg/mL) | 16 µM (≈ 5.01 µg/mL) | 8 µM (≈ 2.51 µg/mL) | 16 µM (≈ 5.01 µg/mL) | –
C/C(=N\NC(=O)c1ccncc1)C(=O)Oc1ccc(Cl)cc1 [3g, 4-Chlorophenyl (E)-2-(2-isonicotinoylhydrazineylidene)propanoate] | 8 µM (≈ 2.54 µg/mL) | 8 µM (≈ 2.54 µg/mL) | 16 µM (≈ 5.08 µg/mL) | 16 µM (≈ 5.08 µg/mL) | 8 µM (≈ 2.54 µg/mL) | 8 µM (≈ 2.54 µg/mL) | 16 µM (≈ 5.08 µg/mL) | 32 µM (≈ 10.2 µg/mL) | 16 µM (≈ 5.08 µg/mL) | 16 µM (≈ 5.08 µg/mL) | 16 µM (≈ 5.08 µg/mL) | 16 µM (≈ 5.08 µg/mL) | 8 µM (≈ 2.54 µg/mL) | 16 µM (≈ 5.08 µg/mL) | –
C/C(=N\NC(=O)c1ccncc1)C(=O)Oc1cccc2ccccc12 [3i, Naphthalen-1-yl (E)-2-(2-isonicotinoylhydrazineylidene)propanoate] | 64 µM (≈ 21.3 µg/mL) | 125 µM (≈ 41.7 µg/mL) | 16 µM (≈ 5.33 µg/mL) | 32 µM (≈ 10.7 µg/mL) | 32 µM (≈ 10.7 µg/mL) | 32 µM (≈ 10.7 µg/mL) | 16 µM (≈ 5.33 µg/mL) | 32 µM (≈ 10.7 µg/mL) | 32 µM (≈ 10.7 µg/mL) | 32 µM (≈ 10.7 µg/mL) | 16 µM (≈ 5.33 µg/mL) | 32 µM (≈ 10.7 µg/mL) | 16 µM (≈ 5.33 µg/mL) | 16 µM (≈ 5.33 µg/mL) | –
C/C(=N\NC(=O)c1ccncc1)C(=O)Oc1ccc2ccccc2c1 [3j, Naphthalen-2-yl (E)-2-(2-isonicotinoylhydrazineylidene)propanoate] | 125 µM (≈ 41.7 µg/mL) | 125 µM (≈ 41.7 µg/mL) | 32 µM (≈ 10.7 µg/mL) | 32 µM (≈ 10.7 µg/mL) | 32 µM (≈ 10.7 µg/mL) | 32 µM (≈ 10.7 µg/mL) | 16 µM (≈ 5.33 µg/mL) | 32 µM (≈ 10.7 µg/mL) | 32 µM (≈ 10.7 µg/mL) | 32 µM (≈ 10.7 µg/mL) | 32 µM (≈ 10.7 µg/mL) | 32 µM (≈ 10.7 µg/mL) | 16 µM (≈ 5.33 µg/mL) | 32 µM (≈ 10.7 µg/mL) | –
C/C(=N\NC(=O)c1ccncc1)C(=O)Oc1cc(C(C)C)ccc1C [3l, 2-Isopropyl-5-methyphenyl (E)-2-(2-isonicotinoylhydrazineylidene)propanoate] | 32 µM (≈ 10.9 µg/mL) | 64 µM (≈ 21.7 µg/mL) | 8 µM (≈ 2.72 µg/mL) | 16 µM (≈ 5.43 µg/mL) | 32 µM (≈ 10.9 µg/mL) | 64 µM (≈ 21.7 µg/mL) | 16 µM (≈ 5.43 µg/mL) | 32 µM (≈ 10.9 µg/mL) | 16 µM (≈ 5.43 µg/mL) | 32 µM (≈ 10.9 µg/mL) | 16 µM (≈ 5.43 µg/mL) | 32 µM (≈ 10.9 µg/mL) | 16 µM (≈ 5.43 µg/mL) | 16 µM (≈ 5.43 µg/mL) | –
C/C(=N\NC(=O)c1ccncc1)C(=O)Oc1cccc2cccnc12 [3m, Quinolin-8-yl (E)-2-(2-isonicotinoylhydrazineylidene)propanoate] | 8 µM (≈ 2.67 µg/mL) | 8 µM (≈ 2.67 µg/mL) | 8 µM (≈ 2.67 µg/mL) | 8 µM (≈ 2.67 µg/mL) | 8 µM (≈ 2.67 µg/mL) | 8 µM (≈ 2.67 µg/mL) | 8 µM (≈ 2.67 µg/mL) | 8 µM (≈ 2.67 µg/mL) | 8 µM (≈ 2.67 µg/mL) | 8 µM (≈ 2.67 µg/mL) | 8 µM (≈ 2.67 µg/mL) | 8 µM (≈ 2.67 µg/mL) | 8 µM (≈ 2.67 µg/mL) | 8 µM (≈ 2.67 µg/mL) | –
C/C(=N\NC(=O)c1ccncc1)C(=O)Oc1cc(Cl)ccc1Oc1ccc(Cl)cc1Cl [3o, 5-Chloro-2-(2,4-dichlorophenoxy)phenyl (E)-2-(2-isonicotinoylhydrazineylidene)propanoate] | 125 µM (≈ 59.8 µg/mL) | 125 µM (≈ 59.8 µg/mL) | 32 µM (≈ 15.3 µg/mL) | 32 µM (≈ 15.3 µg/mL) | 32 µM (≈ 15.3 µg/mL) | 32 µM (≈ 15.3 µg/mL) | 32 µM (≈ 15.3 µg/mL) | 32 µM (≈ 15.3 µg/mL) | 32 µM (≈ 15.3 µg/mL) | 32 µM (≈ 15.3 µg/mL) | 32 µM (≈ 15.3 µg/mL) | 32 µM (≈ 15.3 µg/mL) | 32 µM (≈ 15.3 µg/mL) | 32 µM (≈ 15.3 µg/mL) | –
CC(=O)Nc1ccc(OC(=O)C(C)=NNC(=O)c2ccncc2)cc1 [3p, 4-Acetamidophenyl 2-(2-isonicotinoylhydrazineylidene)propanoate] | 125 µM (≈ 42.5 µg/mL) | 125 µM (≈ 42.5 µg/mL) | 32 µM (≈ 10.9 µg/mL) | 32 µM (≈ 10.9 µg/mL) | 32 µM (≈ 10.9 µg/mL) | 64 µM (≈ 21.8 µg/mL) | 32 µM (≈ 10.9 µg/mL) | 64 µM (≈ 21.8 µg/mL) | 32 µM (≈ 10.9 µg/mL) | 64 µM (≈ 21.8 µg/mL) | 16 µM (≈ 5.45 µg/mL) | 32 µM (≈ 10.9 µg/mL) | 32 µM (≈ 10.9 µg/mL) | 32 µM (≈ 10.9 µg/mL) | –
C/C(=N\NC(=O)c1ccncc1)C(=O)OCCn1c([N+](=O)[O-])cnc1C [3q, 2-(2-Methyl-5-nitro-1H-imidazol-1-yl)ethyl (E)-2-(2 isonicotinoylhydrazineylidene)propanoate] | 125 µM (≈ 45 µg/mL) | 125 µM (≈ 45 µg/mL) | 32 µM (≈ 11.5 µg/mL) | 32 µM (≈ 11.5 µg/mL) | 16 µM (≈ 5.77 µg/mL) | 32 µM (≈ 11.5 µg/mL) | 32 µM (≈ 11.5 µg/mL) | 32 µM (≈ 11.5 µg/mL) | 32 µM (≈ 11.5 µg/mL) | 32 µM (≈ 11.5 µg/mL) | 16 µM (≈ 5.77 µg/mL) | 32 µM (≈ 11.5 µg/mL) | 16 µM (≈ 5.77 µg/mL) | 16 µM (≈ 5.77 µg/mL) | –
C/C(=N\NC(=O)c1ccncc1)C(=O)Sc1ccccc1 [3s, S-Phenyl (E)-2-(2-isonicotinoylhydrazineylidene)propanethioate] | 64 µM (≈ 19.2 µg/mL) | 125 µM (≈ 37.4 µg/mL) | 32 µM (≈ 9.58 µg/mL) | 64 µM (≈ 19.2 µg/mL) | 32 µM (≈ 9.58 µg/mL) | 64 µM (≈ 19.2 µg/mL) | 32 µM (≈ 9.58 µg/mL) | 64 µM (≈ 19.2 µg/mL) | 64 µM (≈ 19.2 µg/mL) | 64 µM (≈ 19.2 µg/mL) | 32 µM (≈ 9.58 µg/mL) | 64 µM (≈ 19.2 µg/mL) | 32 µM (≈ 9.58 µg/mL) | 32 µM (≈ 9.58 µg/mL) | –
